Test results taken from patent US9708314B2, “Heterocyclic amide compound” (NISSAN CHEMICAL INDUSTRIES, LTD., priority 2013, dated 2017).

Experiments:
Format in all cases: in vivo
Brassica campestris L. = assay: Test Example 4: effect on crop by application to foliage (diluvial soil, plastic box); settings: application to foliage, 320 g/ha
In short: (§1)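 Greenhouse plants (25° C. to 30° C., 14 d, diluvial soil) receive a foliar spray of water-diluted emulsifiable formulation at defined g/ha. Grading after 3 weeks uses a six-step herbicidal-ratio scale, with 4 covering 70% to <90% and 1 covering 5% to <20%.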

Zea mays = assay: as above; settings: application to foliage, 320 g/ha
In short: as §1

[1] = tested on: Beta vulgaris ssp. vulgaris; assay: as above; settings: application to foliage, 320 g/ha
In short: as §1

[2] = tested on: directly sowed Oryza sativa; assay: as above; settings: application to foliage, 320 g/ha
In short: as §1

Triticum aestivum = assay: as above; settings: application to foliage, 320 g/ha
In short: as §1

Glycine max = assay: as above; settings: application to foliage, 320 g/ha
In short: as §1

Cyperus difformis = assay: Test Example 3: herbicidal effect by application to foliage (Wagner pot, water depth 0.1-0.5 cm); settings: Nineteenth Table; application to foliage; application herbicide amount 320 g/ha
In short: (§2)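 Three weeks after spraying, each species was graded 0–5 for herbicidal ratio, 5 being 90% or more. Application: water-diluted emulsifiable concentrate at a fixed g/ha to foliage of 14-day-old greenhouse (25–30 °C) plants in alluvial soil.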

[3] = tested on: Echinochloa crus-galli var. crus-galli; assay: as above; settings: Nineteenth Table; application to foliage; application herbicide amount 320 g/ha
In short: as §2

Leptochloa chinensis = assay: as above; settings: Nineteenth Table; application to foliage; application herbicide amount 320 g/ha
In short: as §2

C#CCN(C)c1nnc2c(C(=O)Nc3nnnn3C)ccc(C(F)(F)F)n12 [2-094]
effect on crop, g (Brassica campestris L.) (Brassica campestris L.): 4 (Herbicidal ratio of 70% or more and less than 90%) | effect on crop, b (Zea mays) (Zea mays): 3 (Herbicidal ratio of 40% or more and less than 70%) | effect on crop, f (Beta vulgaris ssp. vulgaris) [1]: 5 (Herbicidal ratio of 90% or more (almost completely withered)) | effect on crop, d (directly sowed Oryza sativa) [2]: 4 (Herbicidal ratio of 70% or more and less than 90%) | effect on crop, e (Triticum aestivum) (Triticum aestivum): 1 (Herbicidal ratio of 5% or more and less than 20%) | effect on crop, c (Glycine max) (Glycine max): 1 (Herbicidal ratio of 5% or more and less than 20%) | E (herbicidal effect grade) (Cyperus difformis): 5 (Herbicidal ratio of 90% or more (almost completely withered)) | H (herbicidal effect grade) [3]: 5 (Herbicidal ratio of 90% or more (almost completely withered)) | D (herbicidal effect grade) (Leptochloa chinensis): 5 (Herbicidal ratio of 90% or more (almost completely withered))

CN(CCC#N)c1nnc2c(C(=O)Nc3nnnn3C)ccc(C(F)(F)F)n12 [2-095]
effect on crop, g (Brassica campestris L.) (Brassica campestris L.): 5 (Herbicidal ratio of 90% or more (almost completely withered)) | effect on crop, b (Zea mays) (Zea mays): 5 (Herbicidal ratio of 90% or more (almost completely withered)) | effect on crop, f (Beta vulgaris ssp. vulgaris) [1]: 5 (Herbicidal ratio of 90% or more (almost completely withered)) | effect on crop, d (directly sowed Oryza sativa) [2]: 5 (Herbicidal ratio of 90% or more (almost completely withered)) | effect on crop, e (Triticum aestivum) (Triticum aestivum): 3 (Herbicidal ratio of 40% or more and less than 70%) | effect on crop, c (Glycine max) (Glycine max): 1 (Herbicidal ratio of 5% or more and less than 20%) | E (herbicidal effect grade) (Cyperus difformis): 5 (Herbicidal ratio of 90% or more (almost completely withered)) | H (herbicidal effect grade) [3]: 5 (Herbicidal ratio of 90% or more (almost completely withered)) | D (herbicidal effect grade) (Leptochloa chinensis): 5 (Herbicidal ratio of 90% or more (almost completely withered))

Cn1nnnc1NC(=O)c1ccc(C(F)(F)F)n2c(=O)n(C)nc12 [6-002]
effect on crop, g (Brassica campestris L.) (Brassica campestris L.): 3 (Herbicidal ratio of 40% or more and less than 70%) | effect on crop, b (Zea mays) (Zea mays): 0 (Herbicidal ratio of 5% or less (almost no effect)) | effect on crop, f (Beta vulgaris ssp. vulgaris) [1]: 3 (Herbicidal ratio of 40% or more and less than 70%) | effect on crop, d (directly sowed Oryza sativa) [2]: 3 (Herbicidal ratio of 40% or more and less than 70%) | effect on crop, e (Triticum aestivum) (Triticum aestivum): 0 (Herbicidal ratio of 5% or less (almost no effect)) | effect on crop, c (Glycine max) (Glycine max): 0 (Herbicidal ratio of 5% or less (almost no effect)) | E (herbicidal effect grade) (Cyperus difformis): 4 (Herbicidal ratio of 70% or more and less than 90%) | H (herbicidal effect grade) [3]: 5 (Herbicidal ratio of 90% or more (almost completely withered)) | D (herbicidal effect grade) (Leptochloa chinensis): 5 (Herbicidal ratio of 90% or more (almost completely withered))

CCn1nc2c(C(=O)Nc3nnnn3C)ccc(C(F)(F)F)n2c1=O [6-004]
effect on crop, g (Brassica campestris L.) (Brassica campestris L.): 3 (Herbicidal ratio of 40% or more and less than 70%) | effect on crop, b (Zea mays) (Zea mays): 0 (Herbicidal ratio of 5% or less (almost no effect)) | effect on crop, f (Beta vulgaris ssp. vulgaris) [1]: 2 (Herbicidal ratio of 20% or more and less than 40%) | effect on crop, d (directly sowed Oryza sativa) [2]: 4 (Herbicidal ratio of 70% or more and less than 90%) | effect on crop, e (Triticum aestivum) (Triticum aestivum): 1 (Herbicidal ratio of 5% or more and less than 20%) | effect on crop, c (Glycine max) (Glycine max): 0 (Herbicidal ratio of 5% or less (almost no effect)) | E (herbicidal effect grade) (Cyperus difformis): 2 (Herbicidal ratio of 20% or more and less than 40%) | H (herbicidal effect grade) [3]: 4 (Herbicidal ratio of 70% or more and less than 90%) | D (herbicidal effect grade) (Leptochloa chinensis): 5 (Herbicidal ratio of 90% or more (almost completely withered))

CC(C)c1nc2c(C(=O)Nc3nnnn3C)ccc(C(F)(F)F)n2n1 [7-002]
effect on crop, g (Brassica campestris L.) (Brassica campestris L.): 3 (Herbicidal ratio of 40% or more and less than 70%) | effect on crop, b (Zea mays) (Zea mays): 0 (Herbicidal ratio of 5% or less (almost no effect)) | effect on crop, f (Beta vulgaris ssp. vulgaris) [1]: 4 (Herbicidal ratio of 70% or more and less than 90%) | effect on crop, d (directly sowed Oryza sativa) [2]: 2 (Herbicidal ratio of 20% or more and less than 40%) | effect on crop, e (Triticum aestivum) (Triticum aestivum): 0 (Herbicidal ratio of 5% or less (almost no effect)) | effect on crop, c (Glycine max) (Glycine max): 0 (Herbicidal ratio of 5% or less (almost no effect)) | E (herbicidal effect grade) (Cyperus difformis): 4 (Herbicidal ratio of 70% or more and less than 90%) | H (herbicidal effect grade) [3]: 4 (Herbicidal ratio of 70% or more and less than 90%) | D (herbicidal effect grade) (Leptochloa chinensis): 4 (Herbicidal ratio of 70% or more and less than 90%)
